{
  "source": "ChEMBL document CHEMBL4680365",
  "about": "“Novel Oxopyrido[1,2-a]pyrimidine Compounds for Treating Bacterial Infection” (ACS Med Chem Lett, 2021)",
  "key": {"[1]": {"system": "Escherichia coli", "test": "Antibacterial activity against Escherichia coli BW25113 assessed as reduction in bacterial growth measured every 20 mins for 16 hrs by serial broth dilution method", "format": "functional, organism-based"}, "[2]": {"system": "Klebsiella pneumoniae", "test": "Antibacterial activity against Klebsiella pneumoniae ATCC 10031 assessed as reduction in bacterial growth measured every 20 mins for 16 hrs by serial broth dilution method", "format": "functional, organism-based"}},
  "note": "pIC50: −log10 of the molar value.",
  "data": [
    {"smiles": "CNc1c(F)cc(F)c2c1[nH]c1ncc(-c3ccc4ncc(C(=O)O)c(=O)n4c3)c(N(C)C)c12", "values": [
      {"measurement": "pIC50", "setting": "[1]", "result": 6.30},
      {"measurement": "pIC50", "setting": "[2]", "result": "> 7.01"}
    ]},
    {"smiles": "CNc1cc(F)c(F)c2c1[nH]c1ncc(-c3cc(CN4CCOCC4)c4ncc(C(=O)O)c(=O)n4c3)c(N(C)C)c12", "values": [
      {"measurement": "pIC50", "setting": "[1]", "result": 6.28},
      {"measurement": "pIC50", "setting": "[2]", "result": "> 7.01"}
    ]},
    {"smiles": "CNc1cc(F)c(F)c2c1[nH]c1ncc(-c3cc(C)c4ncc(C(=O)O)c(=O)n4c3)c(N(C)C)c12", "values": [
      {"measurement": "pIC50", "setting": "[1]", "result": 6.58},
      {"measurement": "pIC50", "setting": "[2]", "result": "> 7.01"}
    ]},
    {"smiles": "CNc1c(F)c(F)cc2c1[nH]c1ncc(-c3ccc4ncc(C(=O)O)c(=O)n4c3)c(N(C)C)c12", "values": [
      {"measurement": "pIC50", "setting": "[1]", "result": 6.35},
      {"measurement": "pIC50", "setting": "[2]", "result": "> 7.01"}
    ]},
    {"smiles": "CNc1cc(F)c(F)c2c1[nH]c1ncc(-c3cc(CN(C)C)c4ncc(C(=O)O)c(=O)n4c3)c(N3CCCC3)c12", "values": [
      {"measurement": "pIC50", "setting": "[1]", "result": 6.18},
      {"measurement": "pIC50", "setting": "[2]", "result": "> 7.01"}
    ]},
    {"smiles": "CNc1cc(F)c(Cl)c2c1[nH]c1ncc(-c3ccc4ncc(C(=O)O)c(=O)n4c3)c(N(C)C)c12", "values": [
      {"measurement": "pIC50", "setting": "[1]", "result": 6.34},
      {"measurement": "pIC50", "setting": "[2]", "result": "> 7.01"}
    ]}
  ]
}
